According to the supplement of paper PMC6045584:
± gives the standard deviation of the averaged measurements.

How the values were obtained:
[1] = compound: CCN(CC)CCCCNc1ncc2cc(-c3cc(OC)cc(OC)c3)c(NC(=O)NC(C)(C)C)nc2n1; test: surviving fraction relative to DMSO-only wells; higher = less growth inhibition; details: exposure time: 5 days
Outline: (§1)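 For each tumour cell line, log-phase cells were put into 384-well plates at 250–500 cells per well, then after 24 hours exposed continuously for five days to inhibitors at 0.5, 1, 5, 10, 50, 100, 500 and 1000 nM. Viability was assessed by CellTiter-Glo luminescence, with surviving fraction expressed relative to the median of DMSO-only wells. Lines were screened three times and retained only if replicate Pearson r exceeded 0.7 and median Z' exceeded 0.3.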

[2] = compound: Nc1ncn([C@H]2C[C@H](O)[C@@H](CO)O2)c(=O)n1 [DECITABINE]; test: as above; details: exposure time: 5 days
Outline: as §1

Question: Which results are given for 22RV1 PROSTATE?
Answer: surviving fraction ([1]; 0.5 nM): 1 ± 0.029; surviving fraction ([1]; 1 nM): 1.02 ± 0.048; surviving fraction ([1]; 5 nM): 0.964 ± 0.011; surviving fraction ([1]; 10 nM): 1.01 ± 0.013; surviving fraction ([1]; 50 nM): 0.997 ± 0.034; surviving fraction ([1]; 100 nM): 1.02 ± 0.044; surviving fraction ([1]; 500 nM): 1.04 ± 0.04; surviving fraction ([1]; 1000 nM): 1.05 ± 0.036; surviving fraction ([2]; 0.5 nM): 1.01 ± 0.024; surviving fraction ([2]; 1 nM): 0.935 ± 0.23; surviving fraction ([2]; 5 nM): 0.964 ± 0.19; surviving fraction ([2]; 10 nM): 0.897 ± 0.19; surviving fraction ([2]; 50 nM): 0.881 ± 0.27; surviving fraction ([2]; 100 nM): 0.801 ± 0.16; surviving fraction ([2]; 500 nM): 0.614 ± 0.17; surviving fraction ([2]; 1000 nM): 0.509 ± 0.15

Question: Which surviving fraction ([1]; 0.5 nM) does the source give for 93VU HEADNECK here?
Answer: 0.952 ± 0.063

Question: And the surviving fraction ([1]; 1 nM)?
Answer: 0.975 ± 0.062

Question: What about the surviving fraction ([1]; 5 nM) of the same test system?
Answer: 1.02 ± 0.1

Question: What about the surviving fraction ([1]; 10 nM) of the same test system?
Answer: 1.03 ± 0.11

Question: What about the surviving fraction ([1]; 50 nM) of the same test system?
Answer: 1.03 ± 0.095

Question: And the surviving fraction ([1]; 100 nM)?
Answer: 0.884 ± 0.18

Question: What about the surviving fraction ([1]; 500 nM) of the same test system?
Answer: 1.01 ± 0.085

Question: What about the surviving fraction ([1]; 1000 nM) of the same test system?
Answer: 0.949 ± 0.076

Question: And the surviving fraction ([2]; 0.5 nM)?
Answer: 1.12 ± 0.086

Question: And the surviving fraction ([2]; 1 nM)?
Answer: 1.09 ± 0.1

Question: And the surviving fraction ([2]; 5 nM)?
Answer: 1.14 ± 0.12

Question: And the surviving fraction ([2]; 10 nM)?
Answer: 1 ± 0.015

Question: And the surviving fraction ([2]; 50 nM)?
Answer: 0.931 ± 0.035

Question: And the surviving fraction ([2]; 100 nM)?
Answer: 0.933 ± 0.017

Question: What about the surviving fraction ([2]; 500 nM) of the same test system?
Answer: 0.747 ± 0.03

Question: What about the surviving fraction ([2]; 1000 nM) of the same test system?
Answer: 0.657 ± 0.007

Question: 143B BONE was tested. Which surviving fraction ([1]; 0.5 nM) did it give?
Answer: 0.941 ± 0.078

Question: And the surviving fraction ([1]; 1 nM)?
Answer: 0.997 ± 0.026

Question: And the surviving fraction ([1]; 5 nM)?
Answer: 0.954 ± 0.068

Question: And the surviving fraction ([1]; 10 nM)?
Answer: 1.02 ± 0.032

Question: What about the surviving fraction ([1]; 50 nM) of the same test system?
Answer: 1.01 ± 0.016

Question: And the surviving fraction ([1]; 100 nM)?
Answer: 1.01 ± 0.061

Question: What about the surviving fraction ([1]; 500 nM) of the same test system?
Answer: 0.97 ± 0.054

Question: And the surviving fraction ([1]; 1000 nM)?
Answer: 0.995 ± 0.038

Question: And the surviving fraction ([2]; 0.5 nM)?
Answer: 1.09 ± 0.088

Question: What about the surviving fraction ([2]; 1 nM) of the same test system?
Answer: 1.08 ± 0.09

Question: And the surviving fraction ([2]; 5 nM)?
Answer: 1.09 ± 0.067

Question: What about the surviving fraction ([2]; 10 nM) of the same test system?
Answer: 1.1 ± 0.069

Question: What about the surviving fraction ([2]; 50 nM) of the same test system?
Answer: 1.13 ± 0.11

Question: What about the surviving fraction ([2]; 100 nM) of the same test system?
Answer: 1.11 ± 0.076

Question: What about the surviving fraction ([2]; 500 nM) of the same test system?
Answer: 0.992 ± 0.11

Question: And the surviving fraction ([2]; 1000 nM)?
Answer: 0.956 ± 0.031

Question: For A549 LUNG, which surviving fraction ([1]; 0.5 nM) is on record?
Answer: 0.975 ± 0.015

Question: What about the surviving fraction ([1]; 1 nM) of the same test system?
Answer: 0.97 ± 0.049

Question: What about the surviving fraction ([1]; 5 nM) of the same test system?
Answer: 0.949 ± 0.036

Question: And the surviving fraction ([1]; 10 nM)?
Answer: 0.952 ± 0.042

Question: What about the surviving fraction ([1]; 50 nM) of the same test system?
Answer: 0.963 ± 0.01

Question: And the surviving fraction ([1]; 100 nM)?
Answer: 1.032 ± 0.0046

Question: What about the surviving fraction ([1]; 500 nM) of the same test system?
Answer: 1.006 ± 0.0065

Question: And the surviving fraction ([1]; 1000 nM)?
Answer: 1.05 ± 0.061

Question: What about the surviving fraction ([2]; 0.5 nM) of the same test system?
Answer: 1.05 ± 0.027

Question: What about the surviving fraction ([2]; 1 nM) of the same test system?
Answer: 1.031 ± 0.0066

Question: And the surviving fraction ([2]; 5 nM)?
Answer: 1.03 ± 0.017

Question: What about the surviving fraction ([2]; 10 nM) of the same test system?
Answer: 0.992 ± 0.016

Question: And the surviving fraction ([2]; 50 nM)?
Answer: 1.03 ± 0.017

Question: And the surviving fraction ([2]; 100 nM)?
Answer: 1.03 ± 0.03

Question: And the surviving fraction ([2]; 500 nM)?
Answer: 1.02 ± 0.036

Question: And the surviving fraction ([2]; 1000 nM)?
Answer: 0.908 ± 0.031

Question: Which results are given for ASKA SYNOVIAL?
Answer: surviving fraction ([1]; 0.5 nM): 1.04 ± 0.044; surviving fraction ([1]; 1 nM): 1.14 ± 0.029; surviving fraction ([1]; 5 nM): 1.19 ± 0.046; surviving fraction ([1]; 10 nM): 1.09 ± 0.091; surviving fraction ([1]; 50 nM): 1.14 ± 0.046; surviving fraction ([1]; 100 nM): 1.18 ± 0.065; surviving fraction ([1]; 500 nM): 1.09 ± 0.086; surviving fraction ([1]; 1000 nM): 0.992 ± 0.013; surviving fraction ([2]; 0.5 nM): 1.04 ± 0.07; surviving fraction ([2]; 1 nM): 1.01 ± 0.085; surviving fraction ([2]; 5 nM): 1.04 ± 0.026; surviving fraction ([2]; 10 nM): 1.03 ± 0.043; surviving fraction ([2]; 50 nM): 1.03 ± 0.067; surviving fraction ([2]; 100 nM): 0.952 ± 0.079; surviving fraction ([2]; 500 nM): 0.711 ± 0.075; surviving fraction ([2]; 1000 nM): 0.6847 ± 0.0058
